Assay: effective fugacity rate on heating with hot air current from ring heater and fan (FIG. 1 apparatus)
Format: physicochemical
Conditions: Table 5, Comparative Example 1: without blowing agent
Procedure: This invention will be described below in greater detail with reference to examples, in which the effective fugacity rates of active ingredients are determined by volatilizing the ingredient within a closed container, passing the air within the container through a solvent which completely dissolves the active ingredients, such as benzene, acetone, water, chloroform or dichloromethane to cause the solvent to absorb the vaporized ingredient in the air, concentrating the solvent and subjecting the concentrate to gas chromatography. The fugacity rate is expressed in terms of the ratio in percent of the quantity of the vaporized active ingredient to the quantity of the ingredient initially admixed with a blowing agent.
Each of the specimen mixtures of insecticide and blowing agent listed in Table 2 is placed in an inner case 8 (60 cm^3 in capacity) fitted in an apparatus (15 cm in diameter and 15 cm in height) provided in its passage 2 with the same ring heater 6 as shown in FIG. 1.
The ring heater 6 (power 400 W) and a fan 4 (with 4 blades) are energized to produce a hot air current. The fan 4 is driven at 3000 r.p.m. The mixture is heated for about 5 minutes (up to a temperature of about 300° C.) with the hot air current to thermally decompose the blowing agent and diffuse the vapor of the insecticide. […]

Molecule `CC(C)=CC1C(C(=O)OCc2coc(Cc3ccccc3)c2)C1(C)C` (stereo not shown) [Specimen 27] has an effective fugacity rate of 0.4%.

Reference: patent publication US4228124A, “Fumigating method and apparatus” (priority 1979, dated 1980)
